The IC50 is the midpoint of a concentration-inhibition curve.

A value given as a limit tells only on which side of the number the result lay.

The target of the test is T1, Axl (Homo sapiens, UniProt P30530).
T1 sequence (P30530 26-894): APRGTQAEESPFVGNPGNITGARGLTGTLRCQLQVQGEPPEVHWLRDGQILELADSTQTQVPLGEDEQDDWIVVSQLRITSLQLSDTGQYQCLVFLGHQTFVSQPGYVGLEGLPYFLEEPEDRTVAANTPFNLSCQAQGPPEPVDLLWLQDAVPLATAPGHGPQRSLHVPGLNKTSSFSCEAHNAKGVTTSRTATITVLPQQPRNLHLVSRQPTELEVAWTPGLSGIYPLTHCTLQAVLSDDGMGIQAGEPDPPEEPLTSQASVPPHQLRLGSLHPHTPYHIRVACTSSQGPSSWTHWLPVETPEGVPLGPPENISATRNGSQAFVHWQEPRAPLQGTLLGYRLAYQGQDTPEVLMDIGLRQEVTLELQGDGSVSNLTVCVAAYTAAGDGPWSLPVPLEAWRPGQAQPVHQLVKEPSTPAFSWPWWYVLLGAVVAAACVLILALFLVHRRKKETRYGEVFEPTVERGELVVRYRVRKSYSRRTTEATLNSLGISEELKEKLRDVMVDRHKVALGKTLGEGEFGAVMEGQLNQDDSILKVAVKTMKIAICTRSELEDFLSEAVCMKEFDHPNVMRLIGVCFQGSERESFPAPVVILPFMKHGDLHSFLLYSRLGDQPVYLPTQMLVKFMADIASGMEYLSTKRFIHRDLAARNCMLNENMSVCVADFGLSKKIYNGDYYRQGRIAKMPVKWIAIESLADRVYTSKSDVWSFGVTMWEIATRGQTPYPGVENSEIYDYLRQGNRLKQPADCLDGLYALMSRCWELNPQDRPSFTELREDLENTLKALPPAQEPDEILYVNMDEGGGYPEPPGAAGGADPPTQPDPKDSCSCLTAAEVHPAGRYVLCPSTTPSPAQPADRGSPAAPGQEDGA
The test is described as follows: Axl NanoBRET intracellular kinase assay (intracellular binding, Cell Binding). The arrangement: host or cells: HEK-293. As to conditions: HEK-293 cells transfected with Axl-NanoLuc fusion vector; 0.35 μM K-5 NanoBRET tracer. A digest of the protocol:
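BRET ratio (610 nm/450 nm) decrease from K-5 tracer displacement gave binding; IC50 by 4-parameter non-linear regression of percent activity. Live HEK-293 cells expressed transiently transfected Axl-NanoLuc. Compound 1 h, then 0.35 μM tracer 2 h, both 37 °C, 5% CO2.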
On the technique in general: In BRET a luciferase serves as donor, and the signal depends on an acceptor being close.
`C[C@@H]1CCCN1C1(C)CCc2ccc(-c3cnc4[nH]nc(-c5ccc(S(=O)(=O)C6CC6)cc5)c4c3)cc2CC1` (stereo partly drawn) [Example 1, 3-(4-(Cyclopropylsulfonyl)phenyl)-5-(7-methyl-7-((R)-2-methylpyrrolidin-1-yl)-6,7,8,9-tetrahydro-5H-benzo[7]annulen-2-yl)-1H-pyrazolo[3,4-b]pyridine] gave a half-inhibitory concentration (IC50) of less than 100 nM.

For the compound `CC1(N2CCOCC2)CCc2ccc(-c3cnc4[nH]nc(-c5ccc(S(=O)(=O)C6CC6)cc5)c4c3)cc2CC1` (stereo not shown) [Example 2, 4-(2-{3-[4-(Cyclopropanesulfonyl)phenyl]-1H-pyrazolo[3,4-b]pyridin-5-yl}-7-methyl-6,7,8,9-tetrahydro-5H-benzo[7]annulen-7-yl)morpholine], the IC50 is greater than 1000 nM.

In turn, `CC1(N2CCC[C@@H]2CO)CCc2ccc(-c3cnc4[nH]nc(-c5ccc(S(=O)(=O)C6CC6)cc5)c4c3)cc2CC1` (stereo partly drawn) [Example 3, [(2R)-1-(2-{3-[4-(Cyclopropanesulfonyl)phenyl]-1H-pyrazolo[3,4-b]pyridin-5-yl}-7-methyl-6,7,8,9-tetrahydro-5H-benzo[7]annulen-7-yl)pyrrolidin-2-yl]methanol] came in with an IC50 of less than 100 nM.

Consider `C[C@@H]1CCCN1C1CCc2ccc(-c3cnc4[nH]nc(-c5ccc(C6(O)CCOC6)c(Cl)c5)c4c3)cc2CC1` (stereo partly drawn) [Example 63, 3-[2-Chloro-4-(5-{7-[(2R)-2-methylpyrrolidin-1-yl]-6,7,8,9-tetrahydro-5H-benzo[7]annulen-2-yl}-1H-pyrazolo[3,4-b]pyridin-3-yl)phenyl]oxolan-3-ol], for which the IC50 is less than 100 nM.

On to `C[C@@H]1CCCN1C1CCc2ccc(-c3cnc4[nH]nc(-c5ccc(C6(O)COC6)c(Cl)c5)c4c3)cc2CC1` (stereo partly drawn) [Example 64, 3-[2-Chloro-4-(5-{7-[(2R)-2-methylpyrrolidin-1-yl]-6,7,8,9-tetrahydro-5H-benzo[7]annulen-2-yl}-1H-pyrazolo[3,4-b]pyridin-3-yl)phenyl]oxetan-3-ol], for which the IC50 is greater than 1000 nM.

`C[C@@H]1CCCN1C1CCc2ccc(-c3cnc4[nH]nc(-c5cnc(C(C)(C)O)c(Cl)c5)c4c3)cc2CC1` (stereo partly drawn) [Example 65, 2-[3-Chloro-5-(5-{7-[(2R)-2-methylpyrrolidin-1-yl]-6,7,8,9-tetrahydro-5H-benzo[7]annulen-2-yl}-1H-pyrazolo[3,4-b]pyridin-3-yl)pyridin-2-yl]propan-2-ol] yielded an IC50 of less than 100 nM.

`COC1CCN(C(=O)c2ccc(-c3n[nH]c4ncc(-c5ccc6c(c5)CC[C@@H](N5CCCC5)CC6)cc34)cc2Cl)CC1` [Example 66, (S)-(2-Chloro-4-(5-(7-(pyrrolidin-1-yl)-6,7,8,9-tetrahydro-5H-benzo[7]annulen-2-yl)-1H-pyrazolo[3,4-b]pyridin-3-yl)phenyl)(4-methoxypiperidin-1-yl)methanone] yielded a concentration for half-maximal inhibition (IC50) of less than 100 nM.

In the case of `COC1CCN(C(=O)c2ccc(-c3n[nH]c4ncc(-c5ccc6c(c5)CCC(C)(N5CCC[C@H]5C)CC6)cc34)cc2Cl)CC1` (stereo partly drawn) [Example 67, 1-[2-Chloro-4-(5-{7-methyl-7-[(2R)-2-methylpyrrolidin-1-yl]-6,7,8,9-tetrahydro-5H-benzo[7]annulen-2-yl}-1H-pyrazolo[3,4-b]pyridin-3-yl)benzoyl]-4-methoxypiperidine], the IC50 was less than 100 nM.

For the compound `C[C@@H]1CCCN1C1(C)CCc2ccc(-c3cnc4[nH]nc(-c5ccc(C(N)=O)c(Cl)c5)c4c3)cc2CC1` (stereo partly drawn) [Example 68, 2-Chloro-4-(5-{7-methyl-7-[(2R)-2-methylpyrrolidin-1-yl]-6,7,8,9-tetrahydro-5H-benzo[7]annulen-2-yl}-1H-pyrazolo[3,4-b]pyridin-3-yl)benzamide], the 50% inhibitory concentration (IC50) is less than 100 nM.

The compound `C[C@@H]1CCCN1C1(C)CCc2ccc(-c3cnc4[nH]nc(-c5ccc(C(=O)NC6CC6)cc5)c4c3)cc2CC1` (stereo partly drawn) [Example 69, N-Cyclopropyl-4-(5-{7-methyl-7-[(2R)-2-methylpyrrolidin-1-yl]-6,7,8,9-tetrahydro-5H-benzo[7]annulen-2-yl}-1H-pyrazolo[3,4-b]pyridin-3-yl)benzamide] came in with a 50% inhibitory concentration (IC50) of less than 100 nM.

For `CC(C)NC(=O)c1ccc(-c2n[nH]c3ncc(-c4ccc5c(c4)CCC(C)(N4CCC[C@H]4C)CC5)cc23)cc1` (stereo partly drawn) [Example 70, 4-(5-{7-Methyl-7-[(2R)-2-methylpyrrolidin-1-yl]-6,7,8,9-tetrahydro-5H-benzo[7]annulen-2-yl}-1H-pyrazolo[3,4-b]pyridin-3-yl)-N-(propan-2-yl)benzamide], the IC50 is less than 100 nM.

As to `COCCNC(=O)c1ccc(-c2n[nH]c3ncc(-c4ccc5c(c4)CCC(C)(N4CCC[C@H]4C)CC5)cc23)cc1` (stereo partly drawn) [Example 72, N-(2-Methoxyethyl)-4-(5-{7-methyl-7-[(2R)-2-methylpyrrolidin-1-yl]-6,7,8,9-tetrahydro-5H-benzo[7]annulen-2-yl}-1H-pyrazolo[3,4-b]pyridin-3-yl)benzamide], the IC50 is less than 100 nM.

In turn, `CCC1(N2CCC[C@H]2C)CCc2ccc(-c3cnc4[nH]nc(-c5ccc(C(N)=O)c(Cl)c5)c4c3)cc2CC1` (stereo partly drawn) [Example 73, 2-Chloro-4-(5-{7-ethyl-7-[(2R)-2-methylpyrrolidin-1-yl]-6,7,8,9-tetrahydro-5H-benzo[7]annulen-2-yl}-1H-pyrazolo[3,4-b]pyridin-3-yl)benzamide] displayed a half-maximal inhibitory concentration (IC50) of less than 100 nM.

`CCC1(N2CCC[C@@H]2CO)CCc2ccc(-c3cnc4[nH]nc(-c5ccc(C(N)=O)c(Cl)c5)c4c3)cc2CC1` (stereo partly drawn) [Example 74, 2-Chloro-4-(5-{7-ethyl-7-[(2R)-2-(hydroxymethyl)pyrrolidin-1-yl]-6,7,8,9-tetrahydro-5H-benzo[7]annulen-2-yl}-1H-pyrazolo[3,4-b]pyridin-3-yl)benzamide] displayed an IC50 of less than 100 nM.

On to `CCC1(N2CCC[C@H]2CO)CCc2ccc(-c3cnc4[nH]nc(-c5ccc(C(N)=O)c(Cl)c5)c4c3)cc2CC1` (stereo partly drawn) [Example 75, 2-Chloro-4-(5-{7-ethyl-7-[(2S)-2-(hydroxymethyl)pyrrolidin-1-yl]-6,7,8,9-tetrahydro-5H-benzo[7]annulen-2-yl}-1H-pyrazolo[3,4-b]pyridin-3-yl)benzamide], for which the IC50 was less than 100 nM.

Turning to `C[C@@H]1CCCN1C1(C)CCc2ccc(-c3cnc4[nH]nc(-c5ccc(C(=O)N6CCC6)cc5)c4c3)cc2CC1` (stereo partly drawn) [Example 76, (2R)-1-(2-{3-[4-(Azetidine-1-carbonyl)phenyl]-1H-pyrazolo[3,4-b]pyridin-5-yl}-7-methyl-6,7,8,9-tetrahydro-5H-benzo[7]annulen-7-yl)-2-methylpyrrolidine], the IC50 is less than 100 nM.

Turning to `NC(=O)c1ccc(-c2n[nH]c3ncc(-c4ccc5c(c4)CCC(N4CCCC4)CC5)cc23)cc1Cl` (stereo not shown) [Example 77, 2-Chloro-4-(5-(7-(pyrrolidin-1-yl)-6,7,8,9-tetrahydro-5H-benzo[7]annulen-2-yl)-1H-pyrazolo[3,4-b]pyridin-3-yl)benzamide], the IC50 was less than 100 nM.

Regarding `NC(=O)c1ccc(-c2n[nH]c3ncc(-c4ccc5c(c4)CCC(N4CCCC4)CC5)cc23)cc1` (stereo not shown) [Example 78, 4-(5-(7-(Pyrrolidin-1-yl)-6,7,8,9-tetrahydro-5H-benzo[7]annulen-2-yl)-1H-pyrazolo[3,4-b]pyridin-3-yl)benzamide], the half-maximal inhibitory concentration (IC50) is less than 100 nM.

`Cc1cc(-c2n[nH]c3ncc(-c4ccc5c(c4)CCC(N4CCCC4)CC5)cc23)cc(F)c1C(N)=O` (stereo not shown) [Example 79, 2-Fluoro-6-methyl-4-(5-(7-(pyrrolidin-1-yl)-6,7,8,9-tetrahydro-5H-benzo[7]annulen-2-yl)-1H-pyrazolo[3,4-b]pyridin-3-yl)benzamide] showed an IC50 of less than 100 nM.

Turning to `NC(=O)c1ccc(-c2n[nH]c3ncc(-c4ccc5c(c4)CCC(N4CCCC4)CC5)cc23)cc1C(F)(F)F` (stereo not shown) [Example 80, 4-(5-(7-(Pyrrolidin-1-yl)-6,7,8,9-tetrahydro-5H-benzo[7]annulen-2-yl)-1H-pyrazolo[3,4-b]pyridin-3-yl)-2-(trifluoromethyl)benzamide], the concentration for half-maximal inhibition (IC50) is less than 100 nM.

Turning to `NC(=O)c1ccc(-c2n[nH]c3ncc(-c4ccc5c(c4)CCC(N4CCCC4)CC5)cc23)cc1F` (stereo not shown) [Example 81, 2-Fluoro-4-(5-(7-(pyrrolidin-1-yl)-6,7,8,9-tetrahydro-5H-benzo[7]annulen-2-yl)-1H-pyrazolo[3,4-b]pyridin-3-yl)benzamide], the half-inhibitory concentration (IC50) is less than 100 nM.

Take `O=C(c1ccc(-c2n[nH]c3ncc(-c4ccc5c(c4)CC[C@@H](N4CCCC4)CC5)cc23)cc1Cl)N1CCNCC1` [Example 82, (S)-(2-Chloro-4-(5-(7-(pyrrolidin-1-yl)-6,7,8,9-tetrahydro-5H-benzo[7]annulen-2-yl)-1H-pyrazolo[3,4-b]pyridin-3-yl)phenyl)(piperazin-1-yl)methanone]: the IC50 was less than 100 nM.
